This is an account of results in patent US5034402A, “Methods and pharmaceutical compositions using pyrrolidine derivatives” (Hoffmann-La Roche Inc., priority 1981, dated 1991).

A short description of series [1]: acute toxicity, single oral administration to mice. The conditions noted are these: mouse, in vivo. The text has this: Moreover, the Table contains data concerning the acute toxicity (LD50 in mg/kg in the case of single oral administration to mice).
The subject of the next series is short-time memory. The series is described as follows: passive avoidance response in the Skinner box; reversal of scopolamine-induced blocking of short-time memory. Format: in vivo, rats. The source says: The test apparatus is a "Skinner box" with an electrifiable grid floor (30×40 cm) and a grey plastic platform (15×15×0.8 cm) in the front right corner. Untrained male rats (100-120 g) are placed individually on the platform. As soon as they climb down on to the grid floor they receive an electric foot-shock (0.8 mA). The normal reaction of untrained rats is thereupon to jump back on to the platform. Since, however, the rats still attempt to climb down again, the foot-shock procedure must be repeated three to five times for each animal. After these three to five repetitions per animal, the rats have learned a so-called "passive avoidance response", that is, they no longer attempt to descend to the grid floor, since they know that they are punished when they do so.
Immediately thereafter three groups each comprising 30 animals are set up. The first group receives an injection (i.p.) of 0.3 mg/kg of scopolamine as well as distilled water (2 ml/kg, p.o.). The second group receives an injection (i.p.) of 0.3 mg/kg of scopolamine and an oral dosage of the test substance. The third group receives only distilled water (p.o).
Two (2) hours later each rat is placed once on the platform in the "Skinner box". […] The statistical significance of the difference between the results obtained in the first and in the second groups is determined by means of the Chi-Square Test. […]

Compound `NC(=O)CN1CC[C@@H](O)C1=O` [Compound C, (R)-(+)-2-(3-hydroxy-2-oxo-1-pyrrolidinyl)acetamide] had a 50% lethal dose (LD50) in series [1] of more than 5000 mg/kg.
Still for that read-out and setting: for `C[C@@H]1CCC[C@H](C)N1CCNC(=O)CN1CCC(O)C1=O` (mixture of isomers) [Compound A, (R/S)-cis-N-[2-(2,6-dimethyl-1-piperidinyl)ethyl]-2-(3-hydroxy-2-oxo-1-pyrrolidinyl)acetamide] the value was more than 5000 mg/kg; for `NC(=O)CN1CCC(O)C1=O` (racemic) [Compound D, (R/S)-2-(3-hydroxy-2-oxo-1-pyrrolidinyl)acetamide], more than 5000 mg/kg.
Same read-out and setting: for `NC(=O)CN1CC[C@H](O)C1=O` [Compound B, (S)-(-)-2-(3-hydroxy-2-oxo-1-pyrrolidinyl)acetamide] the value was more than 5000 mg/kg.
In the case of `CC(C)N(CCNC(=O)CN1CCC(O)C1=O)C(C)C` (racemic) [Compound E, (R/S)-N-[2-(diisopropylamino)ethyl]-2-(3-hydroxy-2-oxo-1-pyrrolidinyl)-acetamide], the Significant active dosage in the series with short-time memory (oral dosage significantly active against scopolamine (0.3 mg/kg i.p.), assessed 2 hours later, Chi-Square Test, each listed dosage was active) stood at 3 mg/kg p.o. For the same compound, in series [1], the 50% lethal dose (LD50) was more than 5000 mg/kg.
As to `CN1[C@@H]2C[C@@H](OC(=O)[C@H](CO)c3ccccc3)C[C@H]1[C@@H]1O[C@@H]12` [scopolamine, reference compound], in the series on short-time memory (scopolamine 0.3 mg/kg i.p. and distilled water p.o., during 3-4 hours), the “animals with retrograde effect on the short-time memory” value is given as 85-92%.
